These results are taken from US8501784B2, “2-pyridone derivatives as neutrophil elastase inhibitors and their use” (Astrazeneca AB, priority 2003, dated 2013).

SMILES strings stand for the structures.

The target in the test is T1, Human Neutrophil Elastase (Homo sapiens, UniProt P08246).
T1 construct: Human Neutrophil Elastase (FINE) purified from serum (Calbiochem art. 324681); purchased Calbiochem 324681; host or cells: natural enzyme, purified from serum
T1 sequence (P08246 30-267): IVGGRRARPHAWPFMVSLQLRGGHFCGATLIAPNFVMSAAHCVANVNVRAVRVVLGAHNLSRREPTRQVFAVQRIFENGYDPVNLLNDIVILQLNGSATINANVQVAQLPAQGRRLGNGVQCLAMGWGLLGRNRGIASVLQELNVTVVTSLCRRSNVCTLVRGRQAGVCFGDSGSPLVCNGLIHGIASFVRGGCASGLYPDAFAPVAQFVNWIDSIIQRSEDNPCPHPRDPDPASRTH
As to the kind of experiment: Human Neutrophil Elastase Quenched-FRET Assay. The conditions noted are these: HNE purified from serum; substrate MeOSuc-AAPV-AMC; 15 min preincubation, 30 min incubation at room temperature; read-out: Inhibition of Human Neutrophil Elastase IC50. It is filed as biochemical. As for the experimental part: Human Neutrophil Elastase Quenched-FRET Assay
HNE was stored in 50 mM NaOAc, 200 mM NaCl, pH 5.5 with added 30% glycerol at −20° C. […] The substrate was stored in DMSO at −20° C. […] The assay buffer constitution was: 100 mM Tris (pH 7.5) and 500 mM NaCl. The enzyme and the compounds were incubated at room temperature for 15 minutes. Then 30 μl substrate in assay buffer was added. The assay was stopped after 30 minutes incubation at room temperature by adding 60 μl stop solution (140 mM acetic acid, 200 mM sodium monochloroacetate, 60 mM sodium acetate, pH 4.3).
As a reminder, the IC50 is the point on the concentration scale where inhibition reaches its midpoint. Consider `Cc1c(-c2ccccc2)cc(C(=O)NCc2ccc(S(C)(=O)=O)cc2)c(=O)n1-c1cccc(C(F)(F)F)c1` [Example 1, 6-Methyl-N-[4-(methylsulfonyl)benzyl]-2-oxo-5-phenyl-1-[3-(trifluoromethyl)phenyl]-1,2-dihydropyridine-3-carboxamide], for which the IC50 was determined as 47 nM.
In the case of `Cc1c(-c2ccoc2)cc(C(=O)NCc2ccc(S(C)(=O)=O)cc2)c(=O)n1-c1cccc(C(F)(F)F)c1` [Example 2, 5-Furan-3-yl-6-methyl-2-oxo-1-(3-trifluoromethyl-phenyl)-1,2-dihydro-pyridine-3-carboxylic acid 4-methanesulfonyl-benzylamide], the 50% inhibitory concentration (IC50) was determined as 46 nM.
For the compound `COc1ncc(-c2cc(C(=O)NCc3ccc(S(C)(=O)=O)cc3)c(=O)n(-c3cccc(C(F)(F)F)c3)c2C)cn1` [Example 5, 5-(2-Methoxypyrimidin-5-yl)-6-methyl-N-[4-(methylsulfonyl)benzyl]-2-oxo-1-[3-(trifluoromethyl)phenyl]-1,2-dihydropyridine-3-carboxamide], the IC50 stood at 48 nM.
On to `Cc1noc(C)c1-c1cc(C(=O)NCc2ccc(S(=O)(=O)C(C)C)cc2)c(=O)n(-c2cccc(C(F)(F)F)c2)c1C` [Example 32, 5-(3,5-Dimethylisoxazol-4-yl)-N-[4-(isopropylsulfonyl)benzyl]-6-methyl-2-oxo-1-[3-(trifluoromethyl)phenyl]-1,2-dihydropyridine-3-carboxamide], for which the half-inhibitory concentration (IC50) amounted to 3 nM.
As for `Cc1nnc(-c2cc(C(=O)NCc3ccc(S(=O)(=O)C4CC4)cc3)c(=O)n(-c3cccc(C(F)(F)F)c3)c2C)o1` [Example 46, N-[4-(Cyclopropylsulfonyl)benzyl]-6-methyl-5-(5-methyl-1,3,4-oxadiazol-2-yl)-2-oxo-1-[3-(trifluoromethyl)phenyl]-1,2-dihydropyridine-3-carboxamide], the figure is 7 nM.
Take `Cc1cc(CNC(=O)c2cc(-c3ccnn3C)c(C)n(-c3cccc(C(F)(F)F)c3)c2=O)on1` [Example 91, 6-Methyl-5-(2-methyl-2H-pyrazol-3-yl)-2-oxo-1-(3-trifluoromethyl-phenyl)-1,2-dihydro-pyridine-3-carboxylic acid (3-methyl-isoxazol-5-ylmethyl)-amide]: the half-maximal inhibitory concentration (IC50) was determined as 12 nM.
